Tests used:
Experiment in all cases: Inhibition of cell line proliferation, CCK8
Assay type in all cases: cell-based
[1] = test system: CFPAC-1 (human pancreatic cancer cells); details: CFPAC-1, 68-72 hours, CCK8
Procedure: Experimental operations: PANC-1 and CFPAC-1 cells were prepared in advance, counted, and plated in 96-well cell culture plates at a cell density of 4×10^4 cells/ml (100 μl/well); negative control and blank control wells were set on each plate. After adherent cell culture overnight, the diluted samples to be tested were added at 50 μl/well. The plates were placed in an incubator at 37° C., 5% CO2 and cultured for 68-72 hours. To each well, 15 μl (10% of the liquid volume in a well) of a color developing solution from CCK8 was added; and the plates were incubated at 37° C. for 45-70 minutes and each plate was read at 450 nm on a microplate reader. The data was edited using SoftMax Pro and a 4-P fitting curve was plotted.
(§1) Experimental operations: LNCaP, SK-BR-3, NCI-H226, CFPAC-1 and PANC-1 cells were prepared in advance and counted; with a culture medium (IMDM+10% FBS+1× L-Glutamine+1×P/S), the cells LNCaP, SK-BR-3 and CFPAC-1 were diluted to 4×10^4 cells/ml, NCI-H226 was diluted to 2.0×10^4 cells/ml and PANC-1 was diluted to 3.0×10^4 cells/ml; the diluted cell solution was plated in 96-well plates at 100 μl/well; and negative control and blank control wells were set on each plate. After adherent cell culture overnight, the diluted samples to be tested were added at 50 μl/well. The plates were placed in an incubator at 37° C., 5% CO2 and cultured for 68-72 hours. To each well, 15 μl (10% of the liquid volume in a well) of a color developing solution from CCK8 was added; and the plates were incubated at 37° C. for 45-70 minutes and each plate was read at 450 nm on a microplate reader. The data was edited using SoftMax Pro and a 4-P fitting curve was plotted.
(§2) Experimental Operations: LNCaP, SK-BR-3, MDA-MB-468 and CFPAC-1 cells were prepared in advance and counted; with a culture medium (IMDM+10% FBS+1× L-Glutamine+1×P/S), the cells LNCaP, SK-BR-3, MDA-MB-468 and CFPAC-1 were diluted to 4×10^4 cells/ml; the diluted cell solution was plated in 96-well plates at 100 µl/well; and negative control and blank control wells were set on each plate. After adherent cell culture overnight, the diluted samples to be tested were added at 50 μl/well. The plates were placed in an incubator at 37° C., 5% CO2 and cultured for 68-72 hours. To each well, 15 μl (10% of the liquid volume in a well) of a color developing solution from CCK8 was added; and the plates were incubated at 37° C. for 45-70 minutes and each plate was read at 450 nm on a microplate reader. The data was edited using SoftMax Pro and a 4-P fitting curve was plotted.
as §2, with “Operations: LNCaP, MDA-MB-468, CFPAC-1 and PANC-1” for “Operations: LNCaP, SK-BR-3, MDA-MB-468 and CFPAC-1”, “CFPAC-1 and PANC-1 cells were” for “MDA-MB-468 and CFPAC-1 cells were”, “cells LNCaP, MDA-MB-468 and” for “cells LNCaP, SK-BR-3, MDA-MB-468 and”, “to 4×10^4 cells/ml, and PANC-1 was diluted to 3.0×10^4 cells/ml; the” for “to 4×10^4 cells/ml; the”, “at 100 μl/well; and negative” for “at 100 µl/well; and negative”
Experimental operations: NCI-H226, CFPAC-1 and MDA-MB-468 cells were prepared in advance and counted; MDA-MB-468 and CFPAC-1 cells were plated at a density of 2×10^4 cells/ml (100 μl/well) and NCI-H226 cells were plated at a density of 1×10^4 cells/ml (100 μl/well) in 96-well plates; and negative control and blank control wells were set on each plate. After adherent cell culture overnight, the diluted samples to be tested were added at 50 μl/well. The plates were placed in an incubator at 37° C., 5% CO2 and cultured for 68-72 hours. […]

[2] = test system: NCI-H226 (human lung cancer cells); details: NCI-H226, 68-72 hours, CCK8
Procedure: as §1
(§3) Experimental operations: NCI-H226, CFPAC-1 and MDA-MB-468 cells were prepared in advance and counted; MDA-MB-468 and CFPAC-1 cells were plated at a density of 2×10^4 cells/ml (100 μl/well) and NCI-H226 cells were plated at a density of 1×10^4 cells/ml (100 μl/well) in 96-well plates; and negative control and blank control wells were set on each plate. After adherent cell culture overnight, the diluted samples to be tested were added at 50 μl/well. The plates were placed in an incubator at 37° C., 5% CO2 and cultured for 68-72 hours. To each well, 15 μl (10% of the liquid volume in a well) of a color developing solution from CCK8 was added; and the plates were incubated at 37° C. for 45-70 minutes and each plate was read at 450 nm on a microplate reader. The data was edited using SoftMax Pro and a 4-P fitting curve was plotted.

[3] = test system: MDA-MB-468 (human breast cancer cells); details: MDA-MB-468, 68-72 hours, CCK8
Procedure: as §2
as §2, with “Operations: LNCaP, MDA-MB-468, CFPAC-1 and PANC-1” for “Operations: LNCaP, SK-BR-3, MDA-MB-468 and CFPAC-1”, “CFPAC-1 and PANC-1 cells were” for “MDA-MB-468 and CFPAC-1 cells were”, “cells LNCaP, MDA-MB-468 and” for “cells LNCaP, SK-BR-3, MDA-MB-468 and”, “to 4×10^4 cells/ml, and PANC-1 was diluted to 3.0×10^4 cells/ml; the” for “to 4×10^4 cells/ml; the”, “at 100 μl/well; and negative” for “at 100 µl/well; and negative”
as §3

Compound	IC50 [1] [nM]	IC50 [2] [nM]	IC50 [3] [nM]
CCCC(=O)N[C@@H](Cc1ccccc1)C(=O)N[C@H]1CSSC[C@@H](C(=O)N[C@H](C(=O)N[C@@H](CCCCNC(=O)[C@H](CCC(=O)O)NC(=O)CCOCCOCCOCCOCCNC(=O)[C@H](CCC(=O)O)NC(=O)[C@H](CSC2CC(=O)N(CCCCCC(=O)NCC(=O)NCC(=O)N[C@@H](Cc3ccccc3)C(=O)NCC(=O)NCOCC(=O)N[C@H]3CCc4c(C)c(F)cc5nc6c(c3c45)Cn3c-6cc4c(c3=O)COC(=O)[C@]4(O)CC)C2=O)NC(=O)CC[C@H](NC(=O)c2ccc(NCc3cnc4[nH]c(N)nc(=O)c4n3)cc2)C(=O)O)C(N)=O)[C@@H](C)O)NC(=O)[C@H]([C@@H](C)O)NC(=O)[C@H](CCCCN)NC(=O)[C@H](Cc2c[nH]c3ccccc23)NC(=O)[C@H](Cc2ccc(O)cc2)NC1=O (stereo partly drawn) [CR19426]	1660	4390	2300
CC[C@@]1(O)C(=O)OCc2c1cc1n(c2=O)Cc2c-1nc1cc(F)c(C)c3c1c2[C@@H](NC(=O)CO)CC3 [Dxd0017, reference compound]	6.4	8	6.1
CCc1c2c(nc3ccc(O)cc13)-c1cc3c(c(=O)n1C2)COC(=O)[C@]3(O)CC [SN-38, reference compound]	5.5	17.3	13.6
